# Test results as given in patent US8415469B2, “Compounds and methods for kinase modulation, and indications therefor” (Plexxikon Inc., priority 2005, dated 2013).
# Key:
# Assay type in all cases: biochemical
# FGFR1 = target: T1, FGFR1 (Homo sapiens, UniProt P11362, C488A/C584S); experiment: AlphaScreen kinase assay, FGFR1; settings: read-out: IC50, activity toward kinase FGFR
# T1 construct: P1351.pET N6 BI-PTP FGFR A458-E765-X C488A, C584S; made in house; host or cells: E. coli (PTP1B co-expressed)
# Ret = target: T2, Ret (Homo sapiens, UniProt P07949); experiment: AlphaScreen kinase assay, Ret; settings: read-out: IC50, activity toward kinase Ret
# T2 construct: P1378.pET-SF BI-PTP RET H661-R1012 HIS; made in house
# T2 sequence (P07949 with tags, fused parts or gaps): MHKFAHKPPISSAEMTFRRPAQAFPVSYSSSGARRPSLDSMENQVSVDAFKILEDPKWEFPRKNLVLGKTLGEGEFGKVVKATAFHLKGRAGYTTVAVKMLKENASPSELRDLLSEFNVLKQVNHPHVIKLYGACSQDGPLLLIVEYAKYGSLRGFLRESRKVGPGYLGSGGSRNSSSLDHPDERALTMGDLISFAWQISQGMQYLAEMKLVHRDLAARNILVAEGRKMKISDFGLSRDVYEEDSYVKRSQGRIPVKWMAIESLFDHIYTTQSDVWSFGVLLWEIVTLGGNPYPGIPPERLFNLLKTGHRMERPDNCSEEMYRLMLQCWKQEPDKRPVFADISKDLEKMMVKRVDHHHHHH
# B-Raf V600E = target: T3, B-Raf V600E (Homo sapiens, UniProt P15056, V600E); experiment: AlphaScreen kinase assay, B-Raf V600E; settings: read-out: IC50, activity toward kinase B-Raf V600E
# T3 construct: P4254. pFastBacBD-CDC37 BRAF D437-K722-X, V600E; His6 with pFastBac HT leader (TEV site) (N); made in house; host or cells: Sf9 (baculovirus; chaperone CDC37 co-expressed)
# Kdr = target: T4, Kdr (Homo sapiens, UniProt P35968); experiment: Z'-Lyte FRET kinase assay (Invitrogen), Kdr; settings: read-out: IC50, activity toward kinase Kdr
# T4 construct: purchased Invitrogen (assay run by Invitrogen)
# Jnk3 = target: T5, Jnk3 (Homo sapiens, UniProt P53779); experiment: AlphaScreen kinase assay, Jnk3; settings: read-out: IC50, activity toward kinase Jnk3
# T5 construct: purchased Upstate Biotechnology
# Jnk2 = target: T6, Jnk2 (Homo sapiens, UniProt P45984); experiment: AlphaScreen kinase assay, Jnk2; settings: read-out: IC50, activity toward kinase Jnk2
# T6 construct: purchased Roche Protein Expression Group (Indianapolis, IN)
# Outline: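 Peptide phosphorylation detected by proximity: streptavidin donor beads bind biotinylated substrate, acceptor beads carry antibody to phosphorylated substrate, singlet oxygen transfer gives emission. Dose-response over 8 points (1:3 steps); stocks 20 mM in DMSO.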
# Jnk1 = target: T7, Jnk1 (Homo sapiens, UniProt P45983); experiment: AlphaScreen kinase assay, Jnk1; settings: read-out: IC50, activity toward kinase Jnk1
# T7 construct: purchased Upstate Biotechnology
# Fms = target: T8, Fms (Homo sapiens, UniProt P07333); experiment: AlphaScreen kinase assay, Fms; settings: read-out: IC50, activity toward kinase Fms
# T8 construct: purchased Upstate Biotechnology
# Flt1 = target: T9, Flt1 (Homo sapiens, UniProt P17948); experiment: AlphaScreen kinase assay, Flt1; settings: read-out: IC50, activity toward kinase Flt1
# T9 construct: P1826.pETN6 BI-PTP FLT1 M799-D1165-X WT; His6 (N); made in house; host or cells: E. coli (PTP1B co-expressed)
# T9 sequence (P17948 with tags, fused parts or gaps): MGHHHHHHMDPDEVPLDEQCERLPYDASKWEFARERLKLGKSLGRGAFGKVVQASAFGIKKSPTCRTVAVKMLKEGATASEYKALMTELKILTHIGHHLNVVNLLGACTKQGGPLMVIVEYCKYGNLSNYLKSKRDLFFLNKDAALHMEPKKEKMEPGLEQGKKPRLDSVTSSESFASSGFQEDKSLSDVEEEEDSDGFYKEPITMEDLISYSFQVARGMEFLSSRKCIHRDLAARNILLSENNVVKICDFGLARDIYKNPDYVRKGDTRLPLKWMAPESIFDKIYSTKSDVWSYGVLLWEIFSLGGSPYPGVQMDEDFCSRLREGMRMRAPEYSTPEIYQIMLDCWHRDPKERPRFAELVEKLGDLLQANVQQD
# B-Raf = target: T10, B-Raf (Homo sapiens, UniProt P15056); experiment: AlphaScreen kinase assay, B-Raf; settings: read-out: IC50, activity toward kinase B-Raf
# T10 construct: purchased Upstate Biotechnology
# Kit = target: T11, Kit (Homo sapiens, UniProt P10721); experiment: AlphaScreen kinase assay, Kit; settings: read-out: IC50, activity toward kinase Kit
# T11 construct: P1332.N6 BI PTP KIT M552-K948-X COD; His6 (N); made in house; host or cells: E. coli (PTP1B co-expressed)
# Fak = target: T12, Fak (Homo sapiens, UniProt Q05397); experiment: AlphaScreen kinase assay, Fak; settings: read-out: IC50, activity toward kinase Fak
# T12 construct: P1358.pFastBacHtb FAK S411-Q686-X; His6 with pFastBacHTb leader (TEV site) (N); made in house; host or cells: Sf9 (baculovirus)
# Src = target: T13, Src (Homo sapiens, UniProt P12931); experiment: AlphaScreen kinase assay, Src; settings: read-out: IC50, activity toward kinase Src
# T13 construct: P1144. pET-N6 BI-PTP SRC V86-L536-X; made in house
# Pyk2 = target: T14, Pyk2 (Homo sapiens, UniProt Q14289); experiment: AlphaScreen kinase assay, Pyk2; settings: read-out: IC50, activity toward kinase Pyk2
# T14 construct: purchased Upstate Biotechnology
# Btk = target: T15, Btk (Homo sapiens, UniProt Q06187); experiment: Z'-Lyte FRET kinase assay (Invitrogen), Btk; settings: read-out: IC50, activity toward kinase Btk
# T15 construct: purchased Invitrogen (assay run by Invitrogen)
# c-Raf-1 = target: T16, c-Raf-1 (Homo sapiens, UniProt P04049); experiment: AlphaScreen kinase assay, c-Raf-1; settings: read-out: IC50, activity toward kinase c-Raf-1
# T16 construct: purchased Upstate Biotechnology
# T1 sequence (P11362 458-765 C488A/C584S): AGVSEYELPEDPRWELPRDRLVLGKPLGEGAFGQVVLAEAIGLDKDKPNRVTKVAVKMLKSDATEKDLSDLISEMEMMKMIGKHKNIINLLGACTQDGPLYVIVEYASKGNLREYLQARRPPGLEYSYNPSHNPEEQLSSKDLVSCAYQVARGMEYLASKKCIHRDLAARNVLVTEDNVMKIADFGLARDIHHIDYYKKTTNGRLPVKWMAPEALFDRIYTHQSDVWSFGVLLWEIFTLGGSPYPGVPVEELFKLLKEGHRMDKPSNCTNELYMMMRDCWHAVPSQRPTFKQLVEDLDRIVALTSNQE
# T3 sequence (P15056 with tags, fused parts or gaps V600E): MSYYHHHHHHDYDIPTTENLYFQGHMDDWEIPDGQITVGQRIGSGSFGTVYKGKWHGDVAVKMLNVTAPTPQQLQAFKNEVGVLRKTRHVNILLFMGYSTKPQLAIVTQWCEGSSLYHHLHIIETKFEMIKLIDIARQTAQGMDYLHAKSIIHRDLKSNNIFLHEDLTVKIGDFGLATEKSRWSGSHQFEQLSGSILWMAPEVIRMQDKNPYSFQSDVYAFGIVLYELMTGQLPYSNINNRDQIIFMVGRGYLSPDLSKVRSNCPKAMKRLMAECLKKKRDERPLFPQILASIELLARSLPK
# T11 sequence (P10721 with tags, fused parts or gaps): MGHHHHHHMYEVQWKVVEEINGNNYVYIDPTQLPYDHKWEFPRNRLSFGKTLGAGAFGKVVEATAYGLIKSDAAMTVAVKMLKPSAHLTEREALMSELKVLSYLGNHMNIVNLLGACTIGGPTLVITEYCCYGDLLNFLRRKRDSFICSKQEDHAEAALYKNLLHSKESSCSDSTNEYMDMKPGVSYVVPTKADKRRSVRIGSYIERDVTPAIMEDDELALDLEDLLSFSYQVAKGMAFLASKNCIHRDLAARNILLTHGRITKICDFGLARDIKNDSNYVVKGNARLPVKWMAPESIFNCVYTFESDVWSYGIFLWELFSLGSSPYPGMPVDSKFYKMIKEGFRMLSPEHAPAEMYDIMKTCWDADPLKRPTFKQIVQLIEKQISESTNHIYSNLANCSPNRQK
# T13 sequence (P12931 with tags, fused parts or gaps): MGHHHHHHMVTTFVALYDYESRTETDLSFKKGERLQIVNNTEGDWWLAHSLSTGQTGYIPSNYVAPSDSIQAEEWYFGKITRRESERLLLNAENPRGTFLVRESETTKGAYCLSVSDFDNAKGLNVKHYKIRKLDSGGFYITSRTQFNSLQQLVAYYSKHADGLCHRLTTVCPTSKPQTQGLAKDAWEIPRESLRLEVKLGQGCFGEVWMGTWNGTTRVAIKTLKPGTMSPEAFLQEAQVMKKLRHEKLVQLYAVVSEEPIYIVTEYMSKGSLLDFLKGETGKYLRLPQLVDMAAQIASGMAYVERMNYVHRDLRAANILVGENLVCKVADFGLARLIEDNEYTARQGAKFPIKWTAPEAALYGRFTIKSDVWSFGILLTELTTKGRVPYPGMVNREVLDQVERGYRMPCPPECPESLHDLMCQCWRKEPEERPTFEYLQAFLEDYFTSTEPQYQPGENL
# T5 sequence (P53779 whole entry): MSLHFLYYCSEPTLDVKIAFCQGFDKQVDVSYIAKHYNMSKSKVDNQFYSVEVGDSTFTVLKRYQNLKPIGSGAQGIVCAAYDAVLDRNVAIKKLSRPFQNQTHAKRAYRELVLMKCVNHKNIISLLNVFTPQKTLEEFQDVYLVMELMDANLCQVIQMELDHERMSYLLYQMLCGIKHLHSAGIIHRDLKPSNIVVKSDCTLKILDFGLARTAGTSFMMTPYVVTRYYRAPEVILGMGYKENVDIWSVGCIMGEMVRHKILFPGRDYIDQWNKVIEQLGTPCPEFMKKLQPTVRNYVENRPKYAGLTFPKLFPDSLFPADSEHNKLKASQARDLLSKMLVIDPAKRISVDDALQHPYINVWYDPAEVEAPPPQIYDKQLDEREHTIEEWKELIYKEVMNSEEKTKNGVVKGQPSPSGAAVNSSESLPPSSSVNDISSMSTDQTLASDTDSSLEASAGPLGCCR
# T12 sequence (Q05397 411-686): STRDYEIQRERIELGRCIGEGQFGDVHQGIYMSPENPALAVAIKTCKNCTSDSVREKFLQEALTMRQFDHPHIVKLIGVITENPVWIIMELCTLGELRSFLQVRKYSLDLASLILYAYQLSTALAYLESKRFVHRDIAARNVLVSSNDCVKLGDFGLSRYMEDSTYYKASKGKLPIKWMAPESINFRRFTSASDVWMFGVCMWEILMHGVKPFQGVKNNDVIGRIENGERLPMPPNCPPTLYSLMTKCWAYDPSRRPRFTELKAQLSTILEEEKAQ
# T6 sequence (P45984 whole entry): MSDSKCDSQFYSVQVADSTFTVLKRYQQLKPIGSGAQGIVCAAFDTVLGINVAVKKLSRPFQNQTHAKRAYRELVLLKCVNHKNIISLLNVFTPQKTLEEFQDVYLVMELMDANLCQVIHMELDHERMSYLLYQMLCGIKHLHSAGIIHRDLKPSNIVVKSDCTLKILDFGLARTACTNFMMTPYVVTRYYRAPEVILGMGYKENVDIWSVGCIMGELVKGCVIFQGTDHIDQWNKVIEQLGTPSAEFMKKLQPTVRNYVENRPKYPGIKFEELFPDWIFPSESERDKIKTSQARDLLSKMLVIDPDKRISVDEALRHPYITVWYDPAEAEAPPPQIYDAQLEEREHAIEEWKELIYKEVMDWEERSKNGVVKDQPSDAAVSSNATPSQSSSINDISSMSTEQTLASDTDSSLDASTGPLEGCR
# T8 sequence (P07333 20-972): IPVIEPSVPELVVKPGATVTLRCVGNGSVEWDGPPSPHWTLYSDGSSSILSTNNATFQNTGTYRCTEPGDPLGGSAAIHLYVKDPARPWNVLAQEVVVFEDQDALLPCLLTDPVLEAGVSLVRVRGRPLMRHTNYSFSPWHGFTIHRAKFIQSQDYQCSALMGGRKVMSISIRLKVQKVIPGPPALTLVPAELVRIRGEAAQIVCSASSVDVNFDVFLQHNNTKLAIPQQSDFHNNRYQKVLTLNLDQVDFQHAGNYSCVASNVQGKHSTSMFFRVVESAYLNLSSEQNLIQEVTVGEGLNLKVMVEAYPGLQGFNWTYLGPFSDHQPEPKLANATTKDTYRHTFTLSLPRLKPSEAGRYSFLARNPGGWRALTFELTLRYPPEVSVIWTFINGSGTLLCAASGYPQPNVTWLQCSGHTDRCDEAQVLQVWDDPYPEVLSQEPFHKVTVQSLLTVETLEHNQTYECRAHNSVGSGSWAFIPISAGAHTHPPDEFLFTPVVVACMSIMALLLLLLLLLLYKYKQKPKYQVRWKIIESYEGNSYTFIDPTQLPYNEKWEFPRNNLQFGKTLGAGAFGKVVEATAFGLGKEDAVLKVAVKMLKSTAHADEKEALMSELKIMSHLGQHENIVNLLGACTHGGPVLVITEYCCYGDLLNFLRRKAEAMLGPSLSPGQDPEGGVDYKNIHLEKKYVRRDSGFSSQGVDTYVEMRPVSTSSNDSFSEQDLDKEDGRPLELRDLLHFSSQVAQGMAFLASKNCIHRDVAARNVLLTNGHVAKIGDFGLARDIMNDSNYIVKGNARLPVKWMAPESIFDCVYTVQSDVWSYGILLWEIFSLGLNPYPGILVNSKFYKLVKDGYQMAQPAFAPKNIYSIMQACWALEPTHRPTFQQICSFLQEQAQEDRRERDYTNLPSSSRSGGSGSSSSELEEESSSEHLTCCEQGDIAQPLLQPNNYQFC
# T10 sequence (P15056 whole entry): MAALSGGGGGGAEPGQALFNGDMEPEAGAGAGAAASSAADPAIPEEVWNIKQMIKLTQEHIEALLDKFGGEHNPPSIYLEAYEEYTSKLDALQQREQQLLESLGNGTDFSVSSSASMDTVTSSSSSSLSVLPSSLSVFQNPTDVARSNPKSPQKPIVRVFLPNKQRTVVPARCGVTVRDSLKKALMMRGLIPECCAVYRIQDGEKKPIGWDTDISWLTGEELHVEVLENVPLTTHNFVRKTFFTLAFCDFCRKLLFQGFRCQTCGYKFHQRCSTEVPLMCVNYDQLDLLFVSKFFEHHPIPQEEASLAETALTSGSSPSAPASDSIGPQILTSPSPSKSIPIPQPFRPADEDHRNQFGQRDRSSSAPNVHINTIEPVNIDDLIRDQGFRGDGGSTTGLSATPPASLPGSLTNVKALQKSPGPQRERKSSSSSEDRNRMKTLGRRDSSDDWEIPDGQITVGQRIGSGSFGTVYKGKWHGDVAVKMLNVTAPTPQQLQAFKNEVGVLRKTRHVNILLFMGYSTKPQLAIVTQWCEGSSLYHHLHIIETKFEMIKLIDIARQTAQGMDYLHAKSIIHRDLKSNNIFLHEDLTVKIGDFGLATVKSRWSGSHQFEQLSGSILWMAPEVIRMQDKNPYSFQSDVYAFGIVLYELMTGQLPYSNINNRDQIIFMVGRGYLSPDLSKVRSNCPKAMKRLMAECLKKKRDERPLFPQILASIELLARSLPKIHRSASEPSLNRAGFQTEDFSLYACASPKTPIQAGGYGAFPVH
# T7 sequence (P45983 whole entry): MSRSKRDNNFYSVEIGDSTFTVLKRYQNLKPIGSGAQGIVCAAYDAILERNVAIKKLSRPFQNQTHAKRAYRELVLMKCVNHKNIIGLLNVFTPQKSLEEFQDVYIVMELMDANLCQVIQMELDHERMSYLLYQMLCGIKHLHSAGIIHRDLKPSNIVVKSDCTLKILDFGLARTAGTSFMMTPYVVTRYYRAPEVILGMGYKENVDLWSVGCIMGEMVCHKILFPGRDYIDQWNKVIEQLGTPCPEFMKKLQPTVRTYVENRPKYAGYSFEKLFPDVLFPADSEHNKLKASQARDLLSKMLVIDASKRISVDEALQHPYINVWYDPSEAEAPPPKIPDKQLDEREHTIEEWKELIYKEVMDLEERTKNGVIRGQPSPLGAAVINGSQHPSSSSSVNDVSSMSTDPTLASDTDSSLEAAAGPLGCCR
SMILES,IC50 (FGFR1),IC50 (Ret),IC50 (B-Raf V600E),IC50 (Kdr),IC50 (Jnk3),IC50 (Jnk2),IC50 (Jnk1),IC50 (Fms),IC50 (Flt1),IC50 (B-Raf),IC50 (Kit),IC50 (Fak),IC50 (Src),IC50 (Pyk2),IC50 (Btk),IC50 (c-Raf-1)
"CS(=O)(=O)Nc1ccc(F)c(C(=O)c2c[nH]c3ncc(-c4ccccc4)cc23)c1 [Compound P-0308, N-[4-Fluoro-3-(5-phenyl-1H-pyrrolo[2,3-b]pyridine-3-carbonyl)-phenyl]-methanesulfonamide]",≤ 10 µM,≤ 10 µM,≤ 10 µM,≤ 10 µM,≤ 10 µM,≤ 10 µM,≤ 10 µM,–,–,–,–,–,–,–,–,–
"CCCCNC(=O)Nc1cccc(Cc2c[nH]c3ncc(-c4cccnc4)cc23)c1 [Compound P-1447, 1-butyl-3-[3-(5-pyridin-3-yl-1H-pyrrolo[2,3-b]pyridin-3-ylmethyl)-phenyl]-urea]",≤ 10 µM,–,≤ 10 µM,–,≤ 10 µM,≤ 10 µM,≤ 10 µM,≤ 10 µM,≤ 10 µM,≤ 10 µM,≤ 10 µM,≤ 10 µM,≤ 10 µM,–,–,–
CC(=O)Nc1ccc(F)c(C(O)c2c[nH]c3ncc(-c4cccnc4)cc23)c1F (stereo not drawn) [Compound P-1069],–,–,≤ 10 µM,–,–,–,–,–,–,–,–,–,–,≤ 10 µM,–,–
"CCCNC(=O)Nc1ccc(F)c(C(=O)c2c[nH]c3ncc(-c4cccnc4)cc23)c1F [Compound P-0774, 1-[2,4-difluoro-3-(5-pyridin-3-yl-1H-pyrrolo[2,3-b]pyridine-3-carbonyl)-phenyl]-3-propyl-urea]",≤ 10 µM,–,≤ 10 µM,–,≤ 10 µM,≤ 10 µM,≤ 10 µM,≤ 10 µM,≤ 10 µM,≤ 10 µM,≤ 10 µM,≤ 10 µM,≤ 10 µM,–,–,≤ 10 µM
Brc1cnc2[nH]cc(Cc3ccccc3OCc3ccccc3)c2c1 [Compound P-1379],–,–,–,–,–,–,–,–,–,–,–,–,–,≤ 10 µM,–,–
"CCCCNC(=O)Nc1cccc(C(=O)c2c[nH]c3ncc(-c4cccnc4)cc23)c1 [Compound P-1445, 1-Butyl-3-[3-(5-pyridin-3-yl-1H-pyrrolo[2,3-b]pyridine-3-carbonyl)-phenyl]-urea]",≤ 10 µM,–,≤ 10 µM,–,≤ 10 µM,≤ 10 µM,≤ 10 µM,≤ 10 µM,≤ 10 µM,≤ 10 µM,≤ 10 µM,≤ 10 µM,≤ 10 µM,–,–,–

# Further lines, results first:
IC50 (FGFR1),IC50 (Ret),IC50 (B-Raf V600E),IC50 (Kdr),IC50 (Jnk3),IC50 (Jnk2),IC50 (Jnk1),IC50 (Fms),IC50 (Flt1),IC50 (B-Raf),IC50 (Kit),IC50 (Fak),IC50 (Src),IC50 (Pyk2),IC50 (Btk),IC50 (c-Raf-1),SMILES
≤ 10 µM,–,≤ 10 µM,–,≤ 10 µM,≤ 10 µM,≤ 10 µM,≤ 10 µM,≤ 10 µM,≤ 10 µM,≤ 10 µM,–,–,–,–,–,"O=C(NCc1ccccc1)Nc1cccc(C(=O)c2c[nH]c3ncc(-c4cccnc4)cc23)c1 [Compound P-1554, 1-Benzyl-3-[3-(5-pyridin-3-yl-1H-pyrrolo[2,3-b]pyridine-3-carbonyl)-phenyl]-urea]"
–,–,≤ 10 µM,–,≤ 10 µM,≤ 10 µM,≤ 10 µM,≤ 10 µM,≤ 10 µM,≤ 10 µM,≤ 10 µM,–,–,–,–,–,"CCCCNC(=O)n1ccc2c(C(=O)c3c[nH]c4ncc(-c5ccccc5)cc34)cccc21 [Compound P-1576, 4-(5-Phenyl-1H-pyrrolo[2,3-b]pyridine-3-carbonyl)-indole-1-carboxylic acid butylamide]"
–,–,≤ 10 µM,–,≤ 10 µM,≤ 10 µM,≤ 10 µM,≤ 10 µM,≤ 10 µM,≤ 10 µM,≤ 10 µM,–,–,–,–,–,"CCCCNC(=O)Nc1ccc(F)c(C(=O)c2c[nH]c3ncc(OC)cc23)c1F [Compound P-1567, 1-Butyl-3-[2,4-difluoro-3-(5-methoxy-1H-pyrrolo[2,3-b]pyridine-3-carbonyl)-phenyl]-urea]"
≤ 10 µM,–,≤ 10 µM,–,≤ 10 µM,≤ 10 µM,≤ 10 µM,≤ 10 µM,≤ 10 µM,≤ 10 µM,≤ 10 µM,≤ 10 µM,≤ 10 µM,–,≤ 10 µM,–,"CCCCNC(=O)n1ccc2c(C(=O)c3c[nH]c4ncc(-c5cccnc5)cc34)cccc21 [Compound P-1486, 4-(5-Pyridin-3-yl-1H-pyrrolo[2,3-b]pyridine-3-carbonyl)-indole-1-carboxylic acid butylamide]"
≤ 10 µM,–,≤ 10 µM,–,≤ 10 µM,≤ 10 µM,≤ 10 µM,≤ 10 µM,≤ 10 µM,≤ 10 µM,≤ 10 µM,–,–,–,–,≤ 10 µM,"CCCS(=O)(=O)Nc1ccc(F)c(C(=O)c2c[nH]c3ncc(-c4ccc(C(=O)N(C)C)cc4)cc23)c1F [Compound P-1547, 4-{3-[2,6-Difluoro-3-(propane-1-sulfonylamino)-benzoyl]-1H-pyrrolo[2,3-b]pyridin-5-yl}-N,N-dimethyl-benzamide]"
≤ 10 µM,–,≤ 10 µM,–,≤ 10 µM,≤ 10 µM,≤ 10 µM,≤ 10 µM,≤ 10 µM,≤ 10 µM,≤ 10 µM,–,–,–,–,–,"CCCS(=O)(=O)Nc1ccc(F)c(C(=O)c2c[nH]c3ncc(-c4ccc(C(=O)N5CCOCC5)cc4)cc23)c1F [Compound P-1548, Propane-1-sulfonic acid (2,4-difluoro-3-{5-[4-(morpholine-4-carbonyl)-phenyl]-1H-pyrrolo[2,3]-pyridine-3-carbonyl}-phenyl)-amide]"
≤ 10 µM,–,≤ 10 µM,–,≤ 10 µM,≤ 10 µM,≤ 10 µM,≤ 10 µM,≤ 10 µM,≤ 10 µM,≤ 10 µM,–,–,–,–,–,"O=C(Nc1ccccc1)Nc1cccc(C(=O)c2c[nH]c3ncc(-c4cccnc4)cc23)c1 [Compound P-1591, 1-Phenyl-3-[3-(5-pyridin-3-yl-1H-pyrrolo[2,3-b]pyridine-3-carbonyl)-phenyl]-urea]"
–,–,≤ 10 µM,–,≤ 10 µM,≤ 10 µM,≤ 10 µM,≤ 10 µM,–,≤ 10 µM,≤ 10 µM,–,–,–,–,≤ 10 µM,"CCCS(=O)(=O)Nc1ccc(F)c(C(=O)c2c[nH]c3ncc(-c4cnn(C)c4)cc23)c1F [Compound P-1864, Propane-1-sulfonic acid {2,4-difluoro-3-[5-(1-methyl-1H-pyrazol-4-yl)-1H-pyrrolo[2,3-b]pyridine-3-carbonyl]-phenyl}-amide]"
